This is an account of results in patent US6387909B1, “Thienopyranecarboxamide derivatives” (Recordati S.A. Chemical and Pharmaceutical Company, priority 1999, dated 2002).

Structures are written as SMILES. Where two headings read alike, the source gives them in different places.

For assay [1], the target named is T1, recombinant α1b-adrenoceptor (Homo sapiens, UniProt P35368).
T1 construct: expressed in transfected cells
T1 sequence (P35368 1-520): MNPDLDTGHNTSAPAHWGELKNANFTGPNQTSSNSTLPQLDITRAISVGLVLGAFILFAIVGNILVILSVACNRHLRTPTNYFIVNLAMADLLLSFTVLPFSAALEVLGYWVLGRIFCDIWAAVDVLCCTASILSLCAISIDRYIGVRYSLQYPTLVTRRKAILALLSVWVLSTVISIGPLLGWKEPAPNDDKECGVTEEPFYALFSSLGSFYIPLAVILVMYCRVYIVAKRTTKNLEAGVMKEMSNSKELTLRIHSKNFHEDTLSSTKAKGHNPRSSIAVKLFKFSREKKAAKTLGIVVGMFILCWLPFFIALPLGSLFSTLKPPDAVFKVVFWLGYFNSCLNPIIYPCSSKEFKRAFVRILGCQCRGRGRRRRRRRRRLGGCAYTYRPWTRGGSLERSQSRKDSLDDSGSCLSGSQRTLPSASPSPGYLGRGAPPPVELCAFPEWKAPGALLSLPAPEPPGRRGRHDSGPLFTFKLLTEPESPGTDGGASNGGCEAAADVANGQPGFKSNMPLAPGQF
As to the kind of experiment: Radioligand binding ([3H]prazosin) to cloned α1b adrenoceptor. As to conditions: read-out: Affinity (Ki) α1b. The method, then: (§1) Determination of affinity for cloned subtypes of the α1-adrenoceptor was performed in membranes from cells transfected by electroporation with DNA expressing the genes encoding each α1-adrenoceptor subtype.
(§2) Non-specific binding was determined in the presence of 10 μM phentolamine. Incubation was stopped by addition of ice-cold Tris buffer and rapid filtration through Schleicher & Schuell GF52 filters that had been pretreated with 0.2%-polyethyleneimine.
(§3) Data were expressed as mean of Ki.

Assay [2] has as its target T2, human 5-HT1A-serotoninergic receptor (Homo sapiens, UniProt P08908).
T2 construct: expressed in transfected cells; host or cells: HeLa
T2 sequence (P08908 1-422): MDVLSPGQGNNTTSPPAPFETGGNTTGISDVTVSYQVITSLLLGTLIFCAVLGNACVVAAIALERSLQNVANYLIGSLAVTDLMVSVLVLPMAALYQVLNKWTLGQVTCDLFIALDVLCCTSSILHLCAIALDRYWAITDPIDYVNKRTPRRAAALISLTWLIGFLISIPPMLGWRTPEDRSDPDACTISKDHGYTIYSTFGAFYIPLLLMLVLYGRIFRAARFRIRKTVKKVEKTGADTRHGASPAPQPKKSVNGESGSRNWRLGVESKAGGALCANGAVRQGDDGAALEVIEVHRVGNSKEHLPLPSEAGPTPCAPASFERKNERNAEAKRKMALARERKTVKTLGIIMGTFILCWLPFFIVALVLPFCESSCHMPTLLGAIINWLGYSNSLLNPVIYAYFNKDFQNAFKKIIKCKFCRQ
Briefly: Radioligand binding ([3H]8-OH-DPAT) to cloned 5-HT1A receptor in HeLa cell membranes. As to conditions: read-out: Affinity (Ki) 5-HT1A. The method, then:
HeLa cells were grown as monolayers in Dulbecco's modified Eagle's medium (DMEM), supplemented with 10% fetal calf serum and gentamicin (100 μg/mL), at 37° C. in 5% CO2. The cells were detached from the growth flask at 95% confluence by a cell scraper and were lysed in a buffer containing ice cold 5 mM Tris, 5 mM EDTA (pH 7.4). The homogenates were centrifuged at 40,000×g for 20 minutes and the membranes were resuspended in a small volume of ice-cold buffer containing 5 mM Tris and 5 mM, EDTA (pH 7.4), and immediately frozen and stored at −70° C. until use.
Non-specific binding was determined in the presence of 10 μM 5-HT. Incubation was stopped by addition of ice-cold Tris buffer and rapid filtration through Schleicher & Schuell GF52 filters that had been pretreated with 0.2%-polyethyleneimine.
as §3

The target in assay [3] is T3, recombinant α1a-adrenoceptor (Homo sapiens, UniProt P35348).
T3 construct: expressed in transfected cells
T3 sequence (P35348 1-466): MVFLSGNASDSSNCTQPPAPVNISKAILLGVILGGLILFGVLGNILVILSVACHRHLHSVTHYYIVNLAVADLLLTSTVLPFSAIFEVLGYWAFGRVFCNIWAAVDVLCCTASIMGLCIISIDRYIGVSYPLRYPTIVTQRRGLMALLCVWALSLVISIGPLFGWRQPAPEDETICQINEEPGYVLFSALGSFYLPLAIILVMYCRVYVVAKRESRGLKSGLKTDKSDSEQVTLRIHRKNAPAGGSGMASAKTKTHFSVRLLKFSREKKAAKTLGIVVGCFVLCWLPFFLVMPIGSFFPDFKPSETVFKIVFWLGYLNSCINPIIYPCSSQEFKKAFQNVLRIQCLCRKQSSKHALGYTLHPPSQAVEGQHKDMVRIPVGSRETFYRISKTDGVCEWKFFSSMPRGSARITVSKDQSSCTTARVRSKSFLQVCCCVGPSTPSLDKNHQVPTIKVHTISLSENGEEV
Briefly: Radioligand binding ([3H]prazosin) to cloned α1a adrenoceptor. As to conditions: read-out: Affinity (Ki) α1a. Here is the method: as §1, §2, §3

In assay [4] the target is T4, recombinant α1d-adrenoceptor (Homo sapiens, UniProt P25100).
T4 construct: expressed in transfected cells
T4 sequence (P25100 1-572): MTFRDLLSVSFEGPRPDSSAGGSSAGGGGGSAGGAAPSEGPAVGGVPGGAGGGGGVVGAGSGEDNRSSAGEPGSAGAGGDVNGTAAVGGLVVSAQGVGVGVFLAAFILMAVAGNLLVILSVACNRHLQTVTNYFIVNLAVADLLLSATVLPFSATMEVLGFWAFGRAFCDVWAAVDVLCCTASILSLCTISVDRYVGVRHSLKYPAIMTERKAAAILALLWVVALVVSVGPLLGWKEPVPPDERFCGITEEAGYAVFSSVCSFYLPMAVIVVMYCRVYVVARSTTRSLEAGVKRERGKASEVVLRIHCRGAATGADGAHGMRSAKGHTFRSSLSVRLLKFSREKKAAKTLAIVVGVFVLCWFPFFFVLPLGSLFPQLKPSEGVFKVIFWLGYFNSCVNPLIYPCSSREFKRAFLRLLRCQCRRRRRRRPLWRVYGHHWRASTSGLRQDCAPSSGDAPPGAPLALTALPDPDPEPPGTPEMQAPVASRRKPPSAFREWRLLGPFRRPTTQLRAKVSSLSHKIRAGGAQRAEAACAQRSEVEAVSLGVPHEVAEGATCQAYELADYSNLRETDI
Briefly: Radioligand binding ([3H]prazosin) to cloned α1d adrenoceptor. As to conditions: read-out: Affinity (Ki) α1d. Here is the method:
as §1, §2, §3

The test system of assay [5] is prostatic urethral contractions induced by noradrenaline. As to conditions: dog, i.v.; data from Leonardi et al. 1997; cited from earlier work.
Assay [6] relates to diastolic blood pressure. As to conditions: dog, i.v.; data from Leonardi et al. 1997; cited from earlier work.
For assay [7], the target named is T5, α1L adrenoceptor (Oryctolagus cuniculus, UniProt O02824).
T5 sequence (O02824 1-466): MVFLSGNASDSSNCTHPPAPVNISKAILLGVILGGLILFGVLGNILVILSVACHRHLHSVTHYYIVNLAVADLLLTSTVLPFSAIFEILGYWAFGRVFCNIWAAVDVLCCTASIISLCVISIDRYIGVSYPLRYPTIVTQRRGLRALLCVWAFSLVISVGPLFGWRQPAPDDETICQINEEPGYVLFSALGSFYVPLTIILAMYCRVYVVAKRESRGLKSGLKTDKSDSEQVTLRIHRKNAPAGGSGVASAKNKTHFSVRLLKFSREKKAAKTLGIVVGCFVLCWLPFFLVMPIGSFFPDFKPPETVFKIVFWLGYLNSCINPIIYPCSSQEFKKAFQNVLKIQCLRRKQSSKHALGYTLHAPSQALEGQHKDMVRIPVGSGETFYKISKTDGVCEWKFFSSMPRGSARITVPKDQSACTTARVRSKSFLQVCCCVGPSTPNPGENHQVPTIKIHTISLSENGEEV
Briefly: Functional antagonism of noradrenaline-induced contractions of rabbit aorta pretreated with chloroethylclonidine. As to conditions: NA-induced contractions. In kind it is biochemical. The method, then: Adult male New Zealand rabbits were sacrificed by cervical dislocation. The aorta was removed, placed in Krebs-Henseleit buffer and dissected free of adhering tissue. […] Desmethylimipramine (0.1 μM) and corticosterone (1 μM) to block neuronal and extraneuronal uptake of NA, (±)-propranol (1 μM) to block β adrenoceptors and yohimbine (0.1 μM) to block α2 adrenoceptors were added to the buffer.
The preparations were equilibrated for 60 minutes and then primed every 30 minutes with 10 μM NA for three times. The aortic rings were then incubated with the alkylating agent chloroethylclonidine (50 μM) for 30 minutes and then washed extensively three times, over a 30 min period before constructing the NA-concentration/response curve. Following washing, tissue was re-equilibrated for 45 min. Test drug was added and after 30 minutes, a second cumulative-NA-concentration/response curve was constructed. Each antagonist concentration was tested using 2-3 aortic rings from different rabbits.
Dose ratios (i.e., the ratio between the concentrations of noradrenaline required to produce half-maximal response in the presence and in the absence of the test antagonist) were calculated at each concentration of the compounds. The logarithm of these dose ratio −1 was plotted against the logarithm of the compound concentrations (Schild plot) to evaluate the affinity constant Kb.
When only one or two concentrations of the test compounds were utilised, the apparent Kb value was calculated using the formula: Kb=[B]/(DOSE RATIO-1), where B is the antagonist concentration.

The test system of assay [8] is prostatic urethral contractions induced by noradrenaline. Briefly: Urethral contractions induced by noradrenaline injection in anaesthetized dogs after intravenous administration. It counts as in vivo. As to conditions: dog, i.v. The method, then:
(§4) The experiments were performed according to the method of Imagawa et al. (J. Pharmacol. Methods, 22:103-111, 1989), with substantial modifications, as follows: adult male beagle dogs, weighing 8-10 kg, were anaesthetized with pentobarbital sodium (30 mg/kg i.v. and 2 mg/kg/h i.v.), intubated and spontaneously ventilated with room air. In order to monitor systemic blood pressure (BP), a polyethylene (PE) catheter was introduced into the aortic arch through the left femoral artery. A collateral of the left femoral vein was cannulated for infusion of anaesthetic, and the right femoral vein was cannulated for administration of compounds. For intraarterial (i.a.) injection of noradrenaline (NA), a PE catheter was introduced into the lower portion of the abdominal aorta via the right external iliac artery. Through such procedure, NA was selectively distributed to the lower urinary tract. A paramedian vertical suprapubic incision extending from the base of the pelvis to the mid-abdominal region was made and the bladder and the prostate were exposed. The bladder was manually emptied with a syringe. Prostatic urethral pressure was monitored with a Mikro-tip catheter (5F) introduced into the bladder via the external urethral meatus, and withdrawn until the pressure transducer was positioned in the prostatic region of the urethra. A ligature was secured between the neck of the bladder and urethra to isolate the response of the latter and to avoid any interaction with the bladder. Another ligature was put around the Mikro-tip catheter at the external meatus, to secure the catheter itself.
(§5) After a stabilizing period following the surgical procedure (30 minutes), in which arterial and prostatic urethral pressures were continuously monitored as basal values, i.a. administration of NA was made at intervals of 20 minutes.
(§6) The NA doses were chosen to produce an increase of at least 100% in urethral pressure. The test compounds were administered intravenously in a cumulative manner with intervals of 15-20 minutes between administrations. […]

The subject of assay [9] is diastolic blood pressure. As to the kind of experiment: Blood pressure in anaesthetized dogs after intravenous administration. As to conditions: dog, i.v. In kind it is in vivo. The method, then:
as §4, §5, §6

A word on the Ki: it is a measure of affinity in units of concentration, obtained from inhibition or displacement. Take `COc1ccc(OCC(F)(F)F)cc1N1CCN(CCCNC(=O)c2csc3c(=O)cc(-c4ccccc4)oc23)CC1` [Example 6, N-{3-[4-[2-Methoxy-5-(2,2,2-trifluoroethoxy)phenyl]-1-piperazinyl]propyl}-7-oxo-5-phenyl7H-thieno[3,2-b]pyran-3-carboxamide]: the inhibitory constant (Ki) in [1] was 39.3 nM; in assay [2], 1080 nM; in assay [3] it was 3.19 nM; in [4], 48.2 nM.
Take `COc1ccccc1N1CCN(CCCNC(=O)c2cccc3c(=O)c(C)c(-c4ccccc4)oc23)CC1` [Compound A]: the “UC ID50 NA (dose inhibiting by 50% the urethral contractions induced by noradrenaline)” value in assay [5] was 0.0024 mg/kg. In addition, in [6], the “DBP ED25 (dose inducing a 25% decrease in diastolic blood pressure)” value was 0.243 mg/kg.
Turning to `O=C(NCCCN1CCN(c2ccc(F)cc2OCC(F)(F)F)CC1)c1csc2c(=O)cc(-c3ccccc3)oc12` [Example 7, N-{3-[4-[4-Fluoro-2-(2,2,2-trifluoroethoxy)phenyl]-1-piperazinyl]propyl}-7-oxo-5-phenyl-7H-thieno[3,2-b]pyran-3-carboxamide], the “pKb, functional affinity for the α1L adrenoceptor subtype” value in assay [7] is 8.66. In addition, the inhibitory constant (Ki) in [1] turned out to be 3.47 nM; in [2], 88.5 nM; in [3], 0.17 nM; in [4] it was 2.45 nM.
For the molecule `COc1ccc(Cl)cc1N1CCN(CCCNC(=O)c2csc3c(=O)cc(-c4ccccc4)oc23)CC1` [Example 1, N-{3-[4-(5-Chloro-2-methoxyphenyl)1-piperazinyl]propyl}-7-oxo-5-phenyl-7H-thieno[3,2-b]Pyran-3-carboxamide], the inhibition constant (Ki) in [1] amounted to 2.53 nM; in [3] it was 0.58 nM; in assay [4] it was 4.12 nM. In assay [8], the “UC ID50 NA (dose inhibiting by 50% the urethral contractions induced by noradrenaline)” value amounted to 0.0053 mg/kg. Also, in [9], the “DBP ED25 (dose inducing a 25% decrease in diastolic blood pressure)” value was determined as 0.28 mg/kg.
`COc1ccccc1N1CCN(CCCNC(=O)c2csc3c(=O)cc(C(F)(F)F)oc23)CC1` [Example 4, N-{3-[4-(2-Methoxyphenyl)-1-piperazinyl]propyl}-7-oxo-5-trifluoromethyl-7H-thieno[3,2b]pyran-3-carboxamide]: the “pKb, functional affinity for the α1L adrenoceptor subtype” value in [7] worked out at 7.92. Besides, the inhibitory constant (Ki) in assay [1] was 23.2 nM; in [2] it was 26.2 nM; in assay [3], 0.6 nM; in [4] it was 3.6 nM.
